Experimental data reported in paper PMC11035632, “Discovery of gefitinib-1,2,3-triazole derivatives against lung cancer via inducing apoptosis and inhibiting the colony formation” (Scientific Reports, 2024).

Experiments:
[1] = tested on: H1299 cells; test: Wound healing assay; format: cell-based, human; conditions: 24 h
Description: H1299 cells were seeded in a 6-well plate, When the cell confluency reached 95%, a wound line was scratched using a 200 µl pipette tip, and then washed three times, fresh medium containing 7a or 7j (2, 4 and 8 μmol/L) was added, and the plate was incubated at 37 °C with 5% CO2. All the images were captured at 0 h and 24 h under an inverted microscope, and the quantification of scratches was analysed using Image J.

[2] = tested on: Bcl-2, caspase9, Cleaved-Caspase3, Cleaved-PARP, MMP9 in H1299 cells; test: Western blot of apoptosis- and migration-related proteins; format: cell-based, human; conditions: H1299, 4, 8 or 16 μM, 48 h
From the text: We conducted an in-depth investigation into the mechanism of apoptosis induced by compounds 7a and 7j. The Bcl-2 protein family is located upstream of the apoptosis signaling pathway. Bcl-2 proteins play an anti-apoptotic role by inhibiting the release of cytochrome C (cyt-c) from mitochondria. Previous literature reports that many anticancer drugs induce apoptosis by downregulating Bcl-2 expression. During apoptosis, the expression of Bcl-2 is inhibited, cyt-c is released, and it binds with the apoptotic protease activation factor to form the apoptosome. This triggers a cascade reaction of Caspase family proteins, with apoptosome promoting the activation of Caspase9. Activated Caspase9 then activates Caspase3, forming the Caspase3 cleavage body, which further activates downstream PARP protein, ultimately promoting cell apoptosis. […] After treating H1299 cells with different concentrations of compounds for 48 h, cell proteins were extracted, and western blot was used to detect the expression changes of apoptosis-related proteins.
Firstly, H1299 cells were treated with different concentrations concentrations of 7a and 7j at 4, 8 and 16 μmol/L for 48 h, cells were harvested using RIPA lysate (R0010, Solarbio) and centrifuged at 12,000 rpm for 15 min at 4 °C, and then the concentration of total protein was measured and taken from the supernatant. Protein was separated by 12% SDS–polyacrylamide gel electrophoresis and transferred to nitrocellulose filter membrane. after blocking in 5% milk for 2 h, the membranes were incubated with specific primary antibody at 4 °C overnight. Next day, NC membranes were incubated for 1 h at room temperature with appropriate secondary antibodies, and then Protein bands was visualizing by chemiluminescence detection (ECL kit, Genview).

## COc1cc2ncnc(Nc3cccc(-c4cn(Cc5cc(F)ccc5Br)nn4)c3)c2cc1OCCCN1CCOCC1 [Compound 7a]
[1]; H1299, 2 μmol/L
  migration closure rate: 65.16 ± 7.88%
[1]; H1299, 4 μmol/L
  migration closure rate: 50.12 ± 2.99%
[1]; H1299, 8 μmol/L
  migration closure rate: 23.54 ± 3.65%
[2]
  Bcl-2 protein expression level: decrease
  Cleaved-Caspase3 protein expression level: increased
  Cleaved-PARP protein expression level: increased
  MMP9 protein expression: downregulated
  caspase9 protein expression level: decrease
